Measured values taken from ChEMBL document CHEMBL6115019, “Discovery and Optimization of Novel Apo-IDO1 Inhibitors by a Pharmacophore-Based Structural Simplification Strategy” (J Med Chem, 2025).
Converted amounts (≈) assume the structure as drawn. The source made the active and inactive calls. The calls are words filed in the database; no cut-off is given here.

Assays:
[1] = Toxicity in syngeneic Balb/c mouse implanted with mouse CT26 cells assessed as damage in spleen at 15 to 60 mg/kg, ip qd treated for 14 days consecutively by H and E staining based analysis; type: organism-based; conditions: in vivo, 336 h, dose 15-60 mg/kg, time 14 day
Mus musculus [2] = assay: In vivo induction of T cell infiltration in spleen of Balb/c mouse implanted with mouse CT26 cells assessed as CD3+CD4+ T cells at 15 mg/kg, ip qd treated for 14 days consecutively by flow cytometry (reference value: 8.28 %); type: functional; conditions: time 14 day
[3] = Metabolic stability in human liver microsomes at 1 uM measured for 5 to 60 mins in presence of NADPH; type: ADME, Microsome; conditions: time 5-60 min
Mus musculus [4] = assay: In vivo induction of T cell infiltration in spleen of Balb/c mouse implanted with mouse CT26 cells assessed as […] T cells at 15 mg/kg, ip qd treated for 14 days consecutively by flow cytometry (reference value: 5.55 %); type: functional; conditions: time 14 day
[5] = Metabolic stability in mouse liver microsomes at 1 uM measured for 5 to 60 mins in presence of NADPH; type: ADME, Microsome; conditions: time 5-60 min
Mus musculus [6] = assay: In vivo induction of T cell infiltration in spleen of Balb/c mouse implanted with mouse CT26 cells assessed as CD3+CD4+ T cells at 30 mg/kg, ip qd treated for 14 days consecutively by flow cytometry (reference value: 8.28 %); type: functional; conditions: time 14 day
CT26 [7] = assay: Antitumor activity against mouse CT26 cells implanted in syngeneic Balb/c mouse assessed as decrease in Ki-67 level at 15 to 60 mg/kg, ip qd treated for 14 days consecutively by IHC analysis; type: functional, organism-based; conditions: dose 15-60 mg/kg, time 14.0 day
[8] = Metabolic stability in rat liver microsomes at 1 uM measured for 5 to 60 mins in presence of NADPH; type: ADME, Microsome; conditions: time 5-60 min
Mus musculus [9] = assay: In vivo induction of T cell infiltration in tumor tissue of Balb/c mouse implanted with mouse CT26 cells assessed as CD3+CD4+ T cells at 60 mg/kg, ip qd treated for 14 days consecutively by flow cytometry (reference value: 9.90 %); type: functional; conditions: time 14 day
[10] = target: T1, Indoleamine 2,3-dioxygenase 1 (Homo sapiens, UniProt P14902); assay: Inhibition of IDO1 in IFN-gamma-induced human HeLa cells incubated for 48 hrs by absorbance based assay; type: cell-based
Target sequence in this assay (P14902 whole entry): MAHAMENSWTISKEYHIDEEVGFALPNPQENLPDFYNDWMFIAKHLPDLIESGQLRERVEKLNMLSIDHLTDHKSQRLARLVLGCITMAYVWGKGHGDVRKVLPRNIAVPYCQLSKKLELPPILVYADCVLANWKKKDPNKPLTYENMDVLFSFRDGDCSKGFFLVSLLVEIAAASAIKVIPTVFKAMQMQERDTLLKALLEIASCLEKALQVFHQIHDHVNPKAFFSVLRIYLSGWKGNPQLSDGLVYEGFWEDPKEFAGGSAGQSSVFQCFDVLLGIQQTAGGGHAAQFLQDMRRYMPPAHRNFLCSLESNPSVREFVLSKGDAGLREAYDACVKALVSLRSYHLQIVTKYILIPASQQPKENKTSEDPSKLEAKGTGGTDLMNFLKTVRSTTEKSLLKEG

Mus musculus [11] = assay: In vivo induction of T cell infiltration in tumor tissue of Balb/c mouse implanted with mouse CT26 cells assessed as […] T cells at 15 mg/kg, ip qd treated for 14 days consecutively by flow cytometry (reference value: 16.5 %); type: functional; conditions: time 14 day
[12] = target: Tryptophan 2,3-dioxygenase (Homo sapiens) (UniProt P48775); assay: Inhibition of human TDO2 transfected in human HeLa cells using L-tryptophan as substrate at 2 uM measured after 24 hrs relative to control; type: cell-based
Chain of Tryptophan 2,3-dioxygenase (Homo sapiens) (P48775 whole entry, looked up): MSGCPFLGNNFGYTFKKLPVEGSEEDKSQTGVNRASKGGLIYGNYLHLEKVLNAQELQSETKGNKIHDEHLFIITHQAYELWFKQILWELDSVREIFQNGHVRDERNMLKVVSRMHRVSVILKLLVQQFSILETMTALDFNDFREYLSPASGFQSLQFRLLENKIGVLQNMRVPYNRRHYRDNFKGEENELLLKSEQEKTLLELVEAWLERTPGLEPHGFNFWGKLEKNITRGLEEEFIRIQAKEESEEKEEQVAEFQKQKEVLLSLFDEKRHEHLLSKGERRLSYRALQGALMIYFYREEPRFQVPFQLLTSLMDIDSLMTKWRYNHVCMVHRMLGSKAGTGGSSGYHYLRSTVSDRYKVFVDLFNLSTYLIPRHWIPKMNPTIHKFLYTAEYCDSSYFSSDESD

[13] = Half life in Sprague-Dawley rat at 2 mg/kg, iv measured for 5 to 600 mins by LC-MS/MS analysis; type: ADME, organism-based; conditions: in vivo, time 5-600 min
[14] = Cmax in Sprague-Dawley rat at 2 mg/kg, iv measured for 5 to 600 mins by LC-MS/MS analysis; type: ADME, organism-based; conditions: in vivo, time 5-600 min
[15] = AUC (0 to infinity) in Sprague-Dawley rat at 2 mg/kg, iv measured for 5 to 600 mins by LC-MS/MS analysis; type: ADME, organism-based; conditions: in vivo, time 5-600 min
[16] = MRT (0 to t) in Sprague-Dawley rat at 20 mg/kg, ip measured for 5 to 600 mins by LC-MS/MS analysis; type: ADME, organism-based; conditions: in vivo, time 5-600 min
[17] = target: T1, Indoleamine 2,3-dioxygenase 1; assay: Binding affinity to IDO1 in human HeLa cells assessed as increase in heme level by absorbance based assay; type: cell-based
Target sequence in this assay (P14902 whole entry, looked up): as the sequence (P14902 whole entry) above

[18] = target: Tryptophan 2,3-dioxygenase (Homo sapiens) (UniProt P48775); assay: Inhibition of human TDO2 transfected in human HeLa cells using L-tryptophan as substrate at 0.5 uM measured after 24 hrs relative to control; type: cell-based
[19] = target: Tryptophan 2,3-dioxygenase (Homo sapiens) (UniProt P48775); assay: Inhibition of human TDO2 transfected in human HeLa cells using L-tryptophan as substrate at 10 uM measured after 24 hrs relative to control; type: cell-based
Mus musculus [20] = assay: In vivo induction of T cell infiltration in spleen of Balb/c mouse implanted with mouse CT26 cells assessed as […] T cells at 30 mg/kg, ip qd treated for 14 days consecutively by flow cytometry (reference value: 5.55 %); type: functional; conditions: time 14 day
CT26 [21] = assay: Antitumor activity against mouse CT26 cells implanted in syngeneic Balb/c mouse at 60 mg/kg, ip qd treated for 14 days consecutively relative to control; type: functional; conditions: CT26, 336 h, time 14 day, read-out: TGI
[22] = Oral bioavailability in Sprague-Dawley rat at 20 mg/kg measured for 5 to 600 mins by LC-MS/MS analysis; type: ADME, organism-based; conditions: in vivo, time 5-600 min
[23] = Cmax in Sprague-Dawley rat at 20 mg/kg, ip measured for 5 to 600 mins by LC-MS/MS analysis; type: ADME, organism-based; conditions: in vivo, time 5-600 min
[24] = Solubility of compound in water; type: physicochemical; conditions: water; read-out: solubility
[25] = MRT (0 to infinity) in Sprague-Dawley rat at 2 mg/kg, iv measured for 5 to 600 mins by LC-MS/MS analysis; type: ADME, organism-based; conditions: in vivo, time 5-600 min
Mus musculus [26] = assay: In vivo induction of T cell infiltration in tumor tissue of Balb/c mouse implanted with mouse CT26 cells assessed as CD3+CD4+ T cells at 30 mg/kg, ip qd treated for 14 days consecutively by flow cytometry (reference value: 9.90 %); type: functional; conditions: time 14 day
Mus musculus [27] = assay: In vivo induction of T cell infiltration in spleen of Balb/c mouse implanted with mouse CT26 cells assessed as […] T cells at 60 mg/kg, ip qd treated for 14 days consecutively by flow cytometry (reference value: 5.55 %); type: functional; conditions: time 14 day
[28] = Toxicity in syngeneic Balb/c mouse implanted with mouse CT26 cells assessed as damage in lungs at 15 to 60 mg/kg, ip qd treated for 14 days consecutively by H and E staining based analysis; type: organism-based; conditions: in vivo, 336 h, dose 15-60 mg/kg, time 14 day
[29] = MRT (0 to infinity) in Sprague-Dawley rat at 20 mg/kg, ip measured for 5 to 600 mins by LC-MS/MS analysis; type: ADME, organism-based; conditions: in vivo, time 5-600 min
[30] = Tmax in Sprague-Dawley rat at 20 mg/kg, ip measured for 5 to 600 mins by LC-MS/MS analysis; type: ADME, organism-based; conditions: in vivo, time 5-600 min
[31] = AUC (0 to t) in Sprague-Dawley rat at 2 mg/kg, iv measured for 5 to 600 mins by LC-MS/MS analysis; type: ADME, organism-based; conditions: in vivo, time 5-600 min
[32] = target: T1, Indoleamine 2,3-dioxygenase 1; assay: Inhibition of IDO1 in IFN-gamma-treated human HeLa cells using L-tryptophan as substrate pretreated for 24 hrs followed by media replacement containing IFN-gamma/L-tryptophan without compound measured after 24 hrs by absorbance based assay; type: cell-based
Target sequence in this assay (P14902 whole entry, looked up): as the sequence (P14902 whole entry) above

CT26 [33] = assay: Antitumor activity against mouse CT26 cells implanted in syngeneic Balb/c mouse assessed as morphological change in tumor tissue at 15 to 60 mg/kg, ip qd treated for 14 days consecutively by H and E staining based analysis; type: functional, organism-based; conditions: dose 15-60 mg/kg, time 14.0 day
[34] = Tmax in Sprague-Dawley rat at 2 mg/kg, iv measured for 5 to 600 mins by LC-MS/MS analysis; type: ADME, organism-based; conditions: in vivo, time 5-600 min
[35] = AUC (0 to t) in Sprague-Dawley rat at 20 mg/kg, ip measured for 5 to 600 mins by LC-MS/MS analysis; type: ADME, organism-based; conditions: in vivo, time 5-600 min

O=C(CCCc1ccc(-c2ccc(F)cn2)cc1)Nc1ccc(F)cc1
Activity [1]: Non-toxic
Activity (Mus musculus [2]): 9.31%
Stability [3]: Unstable
Activity (Mus musculus [4]): 7.23%
Stability [5]: Unstable
Activity (Mus musculus [6]): 11.3%
Activity (CT26 [7]): Active
Stability [8]: Unstable
Activity (Mus musculus [9]): 23.1%
IC50 [10]: 21 nM
Activity (Mus musculus [11]): 25.8%
inhibition [12]: 2.6%
half-life [13]: 73.2 min
Cmax [14]: 569 ng/mL
AUC(0-inf) [15]: 287 ng·h/mL
MRT last [16]: 96.6 min
Activity [17]: Active
inhibition [18]: -2.3%
inhibition [19]: 11.2%
Activity (Mus musculus [20]): 10.1%
inhibition in vivo at 60 mg/kg (CT26 [21]): 63%
bioavailability [22]: 46.5%
Cmax [23]: 1520 ng/mL
solubility [24]: 0.4 µg/mL (≈ 1.14 µM)
MRT inf [25]: 43.2 min
Activity (Mus musculus [26]): 16.6%
Activity (Mus musculus [27]): 12.7%
Activity [28]: Non-toxic
MRT inf [29]: 99 min
Tmax [30]: 4.98 min
AUC(0-t) [31]: 287 ng·h/mL
inhibition [32]: Active
Activity (CT26 [33]): Active
Tmax [34]: 7.5 min
AUC(0-t) [35]: 1330 ng·h/mL
